Experiment: Equilibration of azalide isomers I and II in heated aqueous acid, monitored by HPLC (Table 1)
Assay type: physicochemical
Settings: isomer I prior to equilibration, for comparison
Procedure: The equilibrium ratio of isomers I and II (about 90%±4% to about 10%±4%, respectively) was consistent for all experiments. […] Without being bound by any theory, lower equilibration temperatures or lower pH values generally result in substantially longer equilibration times. Equilibration time can also depend on, inter alia, the concentration of starting material, and the type and concentration of the acid used. Isomer I at a concentration of up to about 300 mg per mL of composition was heated to a temperature of about 40° C. to about 80° C. in the presence of one or more acids at a concentration of about 0.2 mmol to about 1.0 mmol per mL of mixture and with a sufficient quantity of hydrochloric acid to achieve a pH of about 6.5 to about 7.5 for up to about 20 hours to produce an equilibrium mixture of isomers that is about […] pure. Equilibration kinetic parameters and impurity levels for equilibration of azalide isomers I and II were determined as a function of pH, equilibration temperature, type of acid, and isomer I concentration and are listed in Table 1. […]
Equilibrium mixtures of isomers were prepared and assayed as follows. […] 100 mL of solution were prepared in each of experiments 25C-28C, 200 mL of solution were prepared in each of experiments 29C-30C, and equilibration was monitored from 0.5 mL aliquots removed from the solutions. […]

In the case of CCCNC[C@]1(O)[C@H](C)O[C@@H](O[C@H]2[C@H](C)[C@@H](OC3O[C@H](C)C[C@H](N(C)C)[C@H]3O)C(C)(O)C[C@@H](C)CN[C@H](C)[C@@H](O)[C@](C)(O)[C@@H](CC)OC(=O)[C@@H]2C)C[C@@]1(C)OC (single isomer, unassigned) [isomer I], the “% Equilibrium mixture of isomers” value is reported as 98.39% and the “% Impurities” value is reported as 1.61%.

Reference: US6514945B1, “Azalide antibiotic compositions” (Pfizer Inc., priority 2000, dated 2003)
